The source of these data is patent publication US20260315505A1, “COMBINED INHIBITION OF TYROSINE PHOSPHATASES TCPTP AND PTP1B AND PD-1 BLOCKAGE IMMUNOTHERAPY IN THE TREATMENT OF CANCER” (Kanyr Pharma Inc., priority 2022, published 2026).

The test system of data set [1] is E.G7 targets (lysis by CD8 T cells / CTLs). The data set can be described thus: in vitro cytotoxicity of CTLs against OVA expressing E.G7 thymoma cells. Format: cell-based, mouse. The note with it: C57BL/6 CTLs; relative to Inh1; FIG. 12C. The text has this: FIG. 5A Illustrates that pharmacological inhibition of TCPTP and PTP1B results in enhanced cytotoxicity and effector differentiation. CD8 T cells from OT-1 mice were activated/expanded by αCD3/αCD28 antibodies and IL-2 in the presence of different concentrations of TCPTP/PTP1B inhibitor (Inh1) for 5 days. Specific cytotoxicity against OVA expressing E.G7 thymoma cells was measure.
FIG. 12C illustrates the specific cytotoxicity against OVA expressing E.G7 thymoma cells from 5-day C57BL/6 CTLs treated with Inh1 or Inh2 at the concentrations specified. (one of three experiments shown).
To understand the functional capabilities of the CD8 T cells with combined deficiency of TCPTP and PTP1B, the conditional mutant mice of Example 1 were bred with OT-1 transgenic mice. […] Effector CD8 T cells also contribute to the immune response by the secretion of cytokines as IFN-γ, consequently the presence of this cytokine in the supernatant of target cell stimulated CTLs by ELISA was measured. An increase of the secretion of IFN-γ was detected in TCPTP and PTP1B single deficient cells at low effector to target ratios which was more stepped in the […] cells (FIG. 3C). […]
As the differentiation state of CD8 T cells was altered in the various genotypes analyzed before, how treatment with Inh1 altered the expression of differentiation markers was determined by flow cytometric analysis (FIGS. 5D and 5E). […]

The conditions of data set [2]: mice; cited from earlier work.
For data set [3] the following is noted: humans; phase 1 clinical studies; cited from earlier work.

Read-outs that look alike come from different tables or passages of the source.

Regarding `N#CCc1ccc2cc(Br)c(C(F)(F)P(=O)(O)O)cc2c1` [Inh2], the “concentration inducing similar biological activity to Inh1” value in data set [1] is 5 times lower. The systemic tolerability result in data set [2] and in data set [3] was “tolerated systemically” throughout.
